Results from ChEMBL document CHEMBL3045970, “Development of a New Acaricide, Fenpyroximate” (J Pestic Sci, 1995).

Assay: Half life in diluvial and volcanic ash soils under upland laboratory conditions
Type: physicochemical

Cc1nn(C)c(Oc2ccccc2)c1/C=N/OCc1ccc(C(=O)OC(C)(C)C)cc1 [FENPYROXYMATE]
t1/2: 26.3 days
